Source: PMC6345595 (American journal of clinical oncology, 2019)
Values belong to the compound of their own block, whether it stands above or below them.

Assays:
[1] = Plasma pharmacokinetics of dovitinib, gemcitabine and capecitabine by LC/MS/MS; assay type: in vivo, human; settings: for half-life: human, oral, 300 mg, median half-life (T1/2), dovitinib 300 mg
[2] = target: fibroblast growth factor receptors (FGFRs); settings: read-out: IC50 against FGFRs; cited from earlier work
basic FGF (bFGF) = assay: Plasma bFGF Quantikine ELISA; assay type: in vivo, human; settings: 5 patients, baseline vs after 19 days of dovitinib 300 mg
FGF23 = assay: Plasma FGF23 sandwich ELISA; assay type: in vivo, human; settings: out of 5 patients with paired samples; during the first cycle; dovitinib 300 mg daily 5 days on and 2 days off with gemcitabine and capecitabine
CYP 1A1/2 = settings: cited from earlier work
VEGF = assay: Plasma VEGF Quantikine ELISA; assay type: in vivo, human; settings: 5 patients, baseline vs after 19 days of dovitinib 300 mg
[3] = human, in vivo
[4] = AUC 0–8 hours, Day 1, capecitabine 1300 mg/m^2 total daily oral dose divided twice a day, concurrently with dovitinib 300 mg and gemcitabine, N=7
[5] = Day 1, capecitabine 1300 mg/m^2 total daily oral dose divided twice a day, concurrently with dovitinib 300 mg and gemcitabine, plasma, N=5
[6] = Day 1, capecitabine 1300 mg/m^2 total daily oral dose divided twice a day, concurrently with dovitinib 300 mg and gemcitabine, plasma, N=7
[7] = AUC 0–7.5 hours, Day 1, gemcitabine 1000 mg/m^2 intravenously, concurrently with dovitinib 300 mg and capecitabine, N=7

AUC Max [1, 4]: 14439 ng·h/mL | AUC Min [1, 4]: 488 ng·h/mL | T1/2 Max [1, 5]: 4.07 h | T1/2 Min [1, 5]: 0.68 h | Cmax Max [1, 6]: 30300 ng/mL | Cmax Min [1, 6]: 98.8 ng/mL
SMILES: CCCCCOC(=O)Nc1nc(=O)n([C@@H]2O[C@H](C)[C@@H](O)[C@H]2O)cc1F [capecitabine]

SMILES: CN1CCN(c2ccc3nc(-c4c(N)c5c(F)cccc5[nH]c4=O)[nH]c3c2)CC1 [dovitinib]
IC50 [2]: < 10 nM | difference in dovitinib level between Day1 and 19 (autoinduction) ([1]; 300 mg daily dose on 5 days on and 2 days off schedule): did not observe significant difference | accumulation following 3 weeks of dosing ([1]; dovitinib 300 mg dose, Day 1 vs Day 19 Cmax and AUC): slight accumulation | half-life ([1]; plasma, Day 1): ~15 h | half-life ([1]; plasma, Day 19): ~13 h | changes of bFGF plasma level (basic FGF (bFGF)): no observable trend | patients with increased plasma FGF23 level (FGF23): 4 patients | metabolizing enzymes (CYP 1A1/2): mainly metabolized by CYP 1A1/2 and flavin-containing monooxygenase | changes of VEGF plasma level (VEGF): no observable trend | patients with dose limiting toxicity (grade 3 colitis) ([3]; 1 cycle): 1 | recommended dose for expansion / RP2D ([3]; po, 21 day): 300 mg

AUC Max [1, 7]: 12222 ng·h/mL | AUC Min [1, 7]: 6370 ng·h/mL
SMILES: Nc1ccn([C@@H]2O[C@H](CO)[C@@H](O)C2(F)F)c(=O)n1 [gemcitabine]
